Consider 29 compounds from patent US10206398B2, “Five-membered C-N-attached aryl sulphide and aryl sulphoxide derivatives as pesticides” (BAYER CROPSCIENCE AKTIENGESELLSCHAFT, priority 2014, dated 2019).

For one data set, the system named is Tetranychus urticae. Kind of data set: Tetranychus urticae - spray test, OP-resistant (bean leaf discs, 6 days). The class given is in vivo. The conditions noted are these: after 6 days; for pest or weed control at 500 g/ha: Tetranychus urticae, foliar, 144 h, read-out: efficacy (spider mites killed). The protocol: 5. Tetranychus urticae—Spray Test, OP-Resistant
Solvent: 78.0 parts by weight of acetone
• 1.5 parts by weight of dimethylformamide Emulsifier: alkylaryl polyglycol ether
To produce a suitable preparation of active compound, 1 part by weight of active compound is dissolved using the stated parts by weight of solvent and made up with water containing an emulsifier concentration of 1000 ppm until the desired concentration is attained. To produce further test concentrations, the preparation is diluted with emulsifier-containing water.
Discs of bean leaves (Phaseolus vulgaris) infested with all stages of the greenhouse red spider mite (Tetranychus urticae) are sprayed with an active compound preparation of the desired concentration.
After 6 days, the efficacy in % is determined. 100% means that all the spider mites have been killed; 0% means that no spider mites have been killed.

Data set [1] in a line: log P determination by HPLC on reversed-phase columns (C 18), analogous to OECD Guideline 117. The format is physicochemical. The settings on record: for logP[a]: method [a]; for logP[b]: method [b]; for chromatographic logP: reversed-phase HPLC column (C 18). The protocol: The log P values were determined analogously to OECD Guideline 117 (EC Directive 92/69/EEC) by HPLC (high-performance liquid chromatography) using reversed-phase columns (C 18), by the following methods: [a] The LC-MS determination in the acidic range was effected at pH 2.7 with 0.1% aqueous formic acid and acetonitrile (contains 0.1% formic acid) as eluents; linear gradient from 10% acetonitrile to 95% acetonitrile. log P[a] is also referred to as log P(HCOOH). [b] LC-MS determination in the neutral range was effected at pH 7.8 with 0.001 molar aqueous ammonium hydrogencarbonate solution and acetonitrile as eluents; linear gradient from 10% acetonitrile to 95% acetonitrile. log P[b] is also referred to as log P(neutral). Calibration is effected with solutions of a homologous series of unbranched alkan-2-ones (having 3 to 16 carbon atoms) with known log P values (log P values determined on the basis of the retention times by linear interpolation between two successive alkanones).

[2] abbreviates: pH 2.7, HPLC, acidic range, pH 2.7, 0.1% aqueous formic acid and acetonitrile, read-out: log P(HCOOH).
[3] abbreviates: pH 2.7, method [a], read-out: logP[a].
[4] abbreviates: pH 7.8, HPLC, neutral range, pH 7.8, 0.001 molar aqueous ammonium hydrogencarbonate and acetonitrile, read-out: log P(neutral).
Setting [5] is: pH 7.8, method [b], read-out: logP[b].
The mark [6] stands for this setting: pH 2.7, Table 3, HPLC, acidic range, pH 2.7, read-out: logP[a].
Where [7] appears, read: pH 7.8, Table 3, HPLC, neutral range, pH 7.8, read-out: logP[b].

Like-named read-outs stand apart in the source and are kept apart here.

On to `Cc1cc(F)c(N2C(=O)N(C(=O)NCC(F)(F)F)C(C)(C)C2=O)cc1[S+]([O-])CC(F)(F)F` (racemic) [compound 85], for which the “efficacy (spider mites killed)” value in the data set on Tetranychus urticae (500 g/ha) came to 100%. In addition, in data set [1], the “logP[a]” value was 3.07 and the “logP[b]” value came to 3.05.
As for `Cc1cc(F)c(N2C(=O)CN(C(=O)NCC3CCCO3)C2=O)cc1SCC(F)(F)F` (racemic) [compound 67], the “efficacy (spider mites killed)” value in the data set with Tetranychus urticae (500 g/ha) is 100%. In data set [1], the “logP[a]” value is given as 2.99 and the “logP[b]” value is 2.98.
With `Cc1cc(F)c(N2C(=O)N(C(=O)NCc3ccccc3)C(C)(C)C2=O)cc1[S+]([O-])CC(F)(F)F` (racemic) [compound 87], in the data set on Tetranychus urticae (500 g/ha), the “efficacy (spider mites killed)” value was 100%. In addition, in data set [1], the “logP[a]” value came to 3.48 and the “logP[b]” value was 3.38.
Taken in the same sequence, the figures for `COCCNC(=O)N1CC(=O)N(c2cc(SCC(F)(F)F)c(C)cc2F)C1=O` [compound 66] were 100%, 2.77 and 2.76.
Consider `CCNC(=O)N1C(=O)N(c2cc([S+]([O-])CC(F)(F)F)c(C)cc2F)C(=O)C1(C)C` (racemic) [compound 83], for which, in the data set with Tetranychus urticae (500 g/ha), the “efficacy (spider mites killed)” value stood at 90%. In data set [1], the “logP[a]” value is on record as 2.73 and the “logP[b]” value turned out to be 2.70.
`Cc1cc(F)c(N2C(=O)CN(C(=O)NC3CC3)C2=S)cc1[S+]([O-])CC(F)(F)F` (stereo not shown) [Ex. No. 4, N-Cyclopropyl-3-[2-fluoro-4-methyl-5-(2,2,2-trifluoroethylsulphinyl)phenyl]-4-oxo-2-thioxoimidazolidine-1-carboxamide]: the pest or weed control at 500 g/ha in the data set on Tetranychus urticae (500 g/ha) is 100%. For the same compound, the chromatographic logP stood at 2.64 in data set [1] (setting [2]), 2.64 in data set [1] (setting [3]), 2.65 in data set [1] (setting [4]) and 2.65 in data set [1] (setting [5]).
With `Cc1cc(Cl)c(N2C(=O)CN(C(=O)NCc3ccccc3)C2=O)cc1SCC(F)(F)F` [compound 57], in the data set on Tetranychus urticae (500 g/ha), the “efficacy (spider mites killed)” value is 100%. Also, in data set [1], the “logP[a]” value was 3.81 and the “logP[b]” value was found to be 3.61.
For `Cc1cc(F)c(N2C(=O)CN(C(=O)N3CCS(=O)(=O)CC3)C2=O)cc1[S+]([O-])CC(F)(F)F` (stereo not shown) [compound 134], the “efficacy (spider mites killed)” value in the data set with Tetranychus urticae (500 g/ha) is listed as 90%. In data set [1], the “logP[a]” value is listed as 1.66 and the “logP[b]” value is recorded as 1.69.
Taken in the same sequence, the figures for `Cc1cc(C)c([S+]([O-])CC(F)(F)F)cc1N1C(=O)CN(C(=O)NCC(F)(F)F)C1=O` (stereo not shown) [compound 61] were 100%, 2.54 and 2.47.
In the same order, the values of `Cc1cc(F)c(N2C(=O)N(C(=O)NCC(C)C)C(C)(C)C2=O)cc1[S+]([O-])CC(F)(F)F` (racemic) [compound 86] are 100%, 3.41 and 3.39.
In the same order, the values of `O=C(NC1CC1)N1CC(=O)N(c2cc([S+]([O-])CC(F)(F)F)c(Cl)cc2Cl)C1=O` (racemic) [compound 112] are 100%, 2.61 and 2.65.
As for `Cc1cc(F)c(N2C(=O)C(C)N(C(=O)NC(C)C)C2=O)cc1SCC(F)(F)F` (stereo not shown) [compound 26], in the data set on Tetranychus urticae (500 g/ha), the “efficacy (spider mites killed)” value was determined as 100%. Also, in data set [1], the “logP[a]” value came out at 3.78 and the “logP[b]” value is given as 3.68.
Taken in the same sequence, the figures for `Cc1cc(C)c([S+]([O-])CC(F)(F)F)cc1N1C(=O)CN(C(=O)NCc2ccccc2)C1=O` (racemic) [compound 98] were 90%, 2.85 and 2.77.
Taken in the same sequence, the figures for `Cc1cc(F)c(N2C(=O)C(C)N(C(=O)NCc3ccccc3)C2=O)cc1SCC(F)(F)F` (racemic) [compound 81] were 100%, 3.94 and 3.91.
Taken in the same sequence, the figures for `Cc1cc(Cl)c(N2C(=O)CN(C(=O)NCC(C)C)C2=O)cc1SCC(F)(F)F` [compound 52] were 100%, 3.93 and 3.78.
Regarding `Cc1cc(F)c(N2C(=O)N(C(=O)NC3CC3)C(C)(C)C2=O)cc1[S+]([O-])CC(F)(F)F` (stereo not shown) [Ex. No. 84, N-Cyclopropyl-3-[2-fluoro-4-methyl-5-(2,2,2-trifluoroethylsulphinyl)phenyl]-5,5-dimethyl-2,4-dioxoimidazolidine-1-carboxamide], the pest or weed control at 500 g/ha in the data set on Tetranychus urticae (500 g/ha) turned out to be 100%. Besides, the chromatographic logP in data set [1] (setting [2]), in data set [1] (setting [3]), in data set [1] (setting [4]) and in data set [1] (setting [5]) was 2.73 in each case.
Take `Cc1cc(C)c([S+]([O-])CC(F)(F)F)cc1N1C(=O)CN(C(=O)Nc2cccc(Cl)c2)C1=O` (racemic) [compound 69]: the “efficacy (spider mites killed)” value with Tetranychus urticae (100 g/ha) came out at 90%. Besides, in data set [1], the “logP[a]” value is recorded as 3.37 and the “logP[b]” value is 3.33.
Take `CCNC(=O)N1CC(=O)N(c2cc(SCC(F)(F)F)c(C)cc2Cl)C1=O` [compound 51]: the “efficacy (spider mites killed)” value with Tetranychus urticae (500 g/ha) was 100%. Further, in data set [1], the “logP[a]” value came to 3.19 and the “logP[b]” value is 3.13.
As for `CC(C)CNC(=O)N1CC(=O)N(c2cc([S+]([O-])CC(F)(F)F)c(Cl)cc2Cl)C1=O` (racemic) [compound 113], the “efficacy (spider mites killed)” value with Tetranychus urticae (500 g/ha) was found to be 100%. Besides, in data set [1], the “logP[a]” value was 3.21 and the “logP[b]” value came out at 3.28.
In the same order, the values of `Cc1cc(F)c(N2C(=O)C(C)N(C(=O)NCc3ccccc3)C2=O)cc1[S+]([O-])CC(F)(F)F` (mixture of isomers) [compound 90] are 100%, 3.12 and 3.05.
Taken in the same sequence, the figures for `Cc1cc(C)c(N2C(=O)CN(C(=O)Nc3cccc(CC(F)(F)F)c3)C2=O)cc1SCC(F)(F)F` [compound 55] were 90%, 4.43 and 4.35.
As to `Cc1cc(F)c(N2C(=O)CNC2=S)cc1SCC(F)(F)F` [IIa-2, 3-[2-Fluoro-4-methyl-5-(2,2,2-trifluoroethylsulphanyl)phenyl]-2-thioxoimidazolidin-4-one], the pest or weed control at 500 g/ha with Tetranychus urticae (500 g/ha) amounted to 100%. Besides, the chromatographic logP in data set [1] (setting [2]) is 2.53; in data set [1] (setting [6]), 2.53; in data set [1] (setting [4]), 2.5; in data set [1] (setting [7]), 2.5.
For the compound `Cc1cc(F)c(N2C(=O)N(C(=O)NCc3ccccc3)C(C)(C)C2=O)cc1SCC(F)(F)F` [compound 77], in the data set on Tetranychus urticae (500 g/ha), the “efficacy (spider mites killed)” value was found to be 100%. Further, in data set [1], the “logP[a]” value came out at 4.37 and the “logP[b]” value was determined as 4.33.
In the same order, the values of `O=C(Nc1cccc(C(F)(F)F)c1)N1CC(=O)N(c2cc([S+]([O-])CC(F)(F)F)c(Cl)cc2Cl)C1=O` (racemic) [compound 120] are 100%, 3.92 and 4.02.
In the case of `Cc1cc(F)c(N2C(=O)CN(C(=O)NC(C)C)C2=S)cc1[S+]([O-])CC(F)(F)F` (stereo not shown) [compound 14], in the data set on Tetranychus urticae (500 g/ha), the “efficacy (spider mites killed)” value stood at 100%. In data set [1], the “logP[a]” value was determined as 3.01 and the “logP[b]” value is given as 2.93.
`Cc1cc(F)c(N2C(=O)CN(C(=O)NCC(C)C)C2=O)cc1SCC(F)(F)F` [Ex. No. 12, 3-[2-Fluoro-4-methyl-5-(2,2,2-trifluoroethylsulphanyl)phenyl]-N-isobutyl-2,4-dioxoimidazolidine-1-carboxamide]: the pest or weed control at 500 g/ha with Tetranychus urticae (500 g/ha) was determined as 100%. The chromatographic logP was determined as 3.67 in data set [1] (setting [2]), 3.67 in data set [1] (setting [3]), 3.58 in data set [1] (setting [4]) and 3.58 in data set [1] (setting [5]).
`Cc1cc(F)c(N2C(=O)CNC2=O)cc1[S+]([O-])CC(F)(F)F` (stereo not shown) [IIb-1]: in the data set on Tetranychus urticae (500 g/ha), the pest or weed control at 500 g/ha was determined as 100%. For the same compound, the chromatographic logP in data set [1] (setting [2]) turned out to be 1.33; in data set [1] (setting [6]) it was 1.33; in data set [1] (setting [4]), 1.31; in data set [1] (setting [7]) it was 1.31.
Regarding `Cc1cc(C)c(N2C(=O)CN(C(=O)NCC(C)C)C2=O)cc1SCC(F)(F)F` [compound 34], the “efficacy (spider mites killed)” value with Tetranychus urticae (500 g/ha) turned out to be 100%. Moreover, in data set [1], the “logP[a]” value was determined as 3.80 and the “logP[b]” value is listed as 3.69.
In the same order, the values of `CCNC(=O)N1CC(=O)N(c2cc([S+]([O-])CC(F)(F)F)c(C)cc2Cl)C1=O` (stereo not shown) [compound 64] are 100%, 2.23 and 2.24.
